Experiments:
[1] = system: deer sperm; experiment: Post thaw motility of bulk sorted deer sperm (Example 3); type: cell-based; details: 0 HR; RED TALP with 16 μL, Y6 with 14 μL Hoechst 33342
Method: (§1) Each of deer and elk were collected in the Tris-egg yolk catch fluid described as a catch media in Example 1, and shipped for sorting.
(§2) A portion of each of the deer and the elk were stained by the red food dye No. 40 treatment 40% with 16 μL Hoechst 33342 and the yellow food dye No. 6 treatment with 14 μL Hoechst 33342 as described in Example 1.
(§3) Samples were each bulk sorted with the same machine and parameters described in Example 1. Both sorted X and sorted Y sperm were collected into a single catch. The sorted samples were then frozen like those described in Example 1.
(§4) Frozen thawed samples were then tested for post thaw motilities and post thaw DNA fragmentation. Post thaw motilities were slightly higher in Elk sorted with a yellow quencher, while a more significant difference existed in progressive motility. In Table 10, post thaw DNA fragmentation in Elk can be seen at about double after 48 hours when red food dye No. 40 is compared to yellow food dye No. 6 as a dead quencher.

[2] = system: elk sperm; experiment: Post thaw DNA fragmentation of elk sperm (Example 3); type: cell-based
Method: as §1, §2, §3, §4

SMILES	Post Thaw Motility Deer, Motile [1]	Post Thaw Motility Deer, Progressive [1]	Post Thaw DNA fragmentation Elk, Post Sort ([2]; 0 HR, unit assumed) [%]	Post Thaw DNA fragmentation Elk, Pre-sort ([2]; 0 HR, unit assumed) [%]	Post Thaw DNA fragmentation Elk, Post Sort ([2]; 24 HR, unit assumed) [%]	Post Thaw DNA fragmentation Elk, Pre-sort ([2]; 24 HR, unit assumed) [%]	Post Thaw DNA fragmentation Elk, Post Sort ([2]; 48 HR, unit assumed) [%]	Post Thaw DNA fragmentation Elk, Pre-sort ([2]; 48 HR, unit assumed) [%]	Post Thaw DNA fragmentation Elk, Post Sort ([2]; elk, 0 h) [%]	Post Thaw DNA fragmentation Elk, Pre-sort ([2]; elk, 0 h) [%]	Post Thaw DNA fragmentation Elk, Post Sort ([2]; elk, 24 h) [%]	Post Thaw DNA fragmentation Elk, Pre-sort ([2]; elk, 24 h) [%]	Post Thaw DNA fragmentation Elk, Post Sort ([2]; elk, 48 h) [%]	Post Thaw DNA fragmentation Elk, Pre-sort ([2]; elk, 48 h) [%]
O=S(=O)([O-])c1ccc(N=Nc2c(O)ccc3cc(S(=O)(=O)[O-])ccc23)cc1.[Na+].[Na+] [Yellow 6, Disodium 6-hydroxy-5-[(4-sulfophenyl)azo]-2-naphthalenesulfononate]	67.5	53.2	0	2.3	0	3.3	0.3	3.7	–	–	–	–	–	–
COc1cc(S(=O)(=O)O)c(C)cc1N=Nc1c(O)ccc2cc(S(=O)(=O)O)ccc12 [Red 40, 6-hydroxy-5-[(2-methoxy-5-methyl-4-sulfophenyl)azo]-2-naphthalenesulfonic acid, reference compound]	59.8	43.0	–	–	–	–	–	–	0	2.3	0.3	5.6	0.7	6

Source: patent publication US9140688B2, “Sperm staining and sorting methods” (INGURAN, LLC, priority 2011, dated 2015)
